Assay results reported in patent publication US20230201217A1 (priority 2019, published 2023).
pIC50: −log10 of the molar value.

Assays:
[1] = target: T1, rat α3β4 nicotinic acetylcholine receptor (nAChR) (Rattus norvegicus, UniProt P04757+P12392); experiment: cell-based
T1 construct: expressed in transfected cells; host or cells: HEK 293 (ATCC CRL1573), transient, Lipofectamine 2000

[2] = tested on: Sprague Dawley rats; experiment: Modified Irwin test, pilot dose finding study, female rats; format: in vivo, rat; details: single oral dose 30-800 mg/kg
Procedure: Under the conditions of this study, the no-observed-effect level (NOEL) and no-observed-adverse-effect level (NOAEL) were considered to be 90 mg/kg and 400 mg/kg, respectively.

[3] = tested on: cynomolgus monkeys; experiment: 14-day nasogastric gavage GLP toxicity study in cynomolgus monkeys; format: in vivo, cynomolgus monkey; details: 14 days
Text: Assessments of neurobehavioral effects and general toxicity were based on mortality, functional observational battery (FOB) evaluations, clinical observations, body weight, and body temperature; ophthalmoscopic, electrocardiographic examinations; and anatomic and clinical pathology. The anatomical pathology evaluations included histopathology of a full list of tissues from all animals and a comprehensive evaluation of the central nervous system (including selected peripheral nerves) utilizing whole body perfusion and special stains. Bone marrow smears from all animals were evaluated microscopically. Complete differentials and myeloid-erythroid (ME) ratios were performed. Toxicokinetic assessment was conducted for the test article and metabolites.

[4] = tested on: polychromatic erythrocytes in mouse bone marrow; experiment: Mouse bone marrow in vivo micronucleus assay; details: GLP, 50, 75, 120 mg/kg/day for 3 days
Procedure: Treatment resulted and clinical signs of lethargy and piloerection at doses of 200-400 mg/kg and in mortality of male and female ICR mice at doses of 300 and 400 mg/kg. The highest non-lethal dose was 250 mg/kg.
These doses were based upon prior toxicology data indicating higher doses were associated with mortality in this species. […] A positive control group received a single oral dose of 60 mg/kg cyclophosphamide on Day 2, the day prior to the scheduled euthanasia. Each group consisted of 6 males. Males only were used as no significant differences in response related to gender were expected based upon prior toxicology and toxicokinetic data. All animals were euthanized on Day 3, the day following the final dose and discarded following bone marrow collection.
All animals were observed twice daily for mortality and moribundity. Bone marrow collection for micronucleus evaluation was performed for 5 of the 6 animals in each group at the scheduled euthanasia (Day 3). All animals were discarded without necropsy. Bone marrow smears were prepared, and the coded slides were counted for polychromatic, normochromatic, and micronucleated polychromatic erythrocytes following the final bone marrow sample collection on Day 3.

[5] = target: CYP2C9 (Homo sapiens, UniProt P11712); details: recombinant enzyme
Sequence of CYP2C9 (P11712 whole entry): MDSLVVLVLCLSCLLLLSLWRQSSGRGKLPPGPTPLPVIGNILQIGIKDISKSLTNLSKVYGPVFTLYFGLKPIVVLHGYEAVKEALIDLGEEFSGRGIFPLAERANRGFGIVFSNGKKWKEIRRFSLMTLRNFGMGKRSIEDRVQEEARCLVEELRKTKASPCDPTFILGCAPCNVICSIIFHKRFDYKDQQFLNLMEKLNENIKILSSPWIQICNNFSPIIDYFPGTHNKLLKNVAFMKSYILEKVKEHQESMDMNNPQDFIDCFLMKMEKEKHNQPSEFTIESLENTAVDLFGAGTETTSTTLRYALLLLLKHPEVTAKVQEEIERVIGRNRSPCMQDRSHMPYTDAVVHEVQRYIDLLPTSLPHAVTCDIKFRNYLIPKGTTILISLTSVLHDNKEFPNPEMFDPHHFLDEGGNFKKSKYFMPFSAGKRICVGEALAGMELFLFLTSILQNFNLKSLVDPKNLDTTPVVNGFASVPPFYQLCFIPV
Procedure: Control incubations were performed for each assay with appropriate positive inhibitory controls.

T1 sequence (P04757 26-499): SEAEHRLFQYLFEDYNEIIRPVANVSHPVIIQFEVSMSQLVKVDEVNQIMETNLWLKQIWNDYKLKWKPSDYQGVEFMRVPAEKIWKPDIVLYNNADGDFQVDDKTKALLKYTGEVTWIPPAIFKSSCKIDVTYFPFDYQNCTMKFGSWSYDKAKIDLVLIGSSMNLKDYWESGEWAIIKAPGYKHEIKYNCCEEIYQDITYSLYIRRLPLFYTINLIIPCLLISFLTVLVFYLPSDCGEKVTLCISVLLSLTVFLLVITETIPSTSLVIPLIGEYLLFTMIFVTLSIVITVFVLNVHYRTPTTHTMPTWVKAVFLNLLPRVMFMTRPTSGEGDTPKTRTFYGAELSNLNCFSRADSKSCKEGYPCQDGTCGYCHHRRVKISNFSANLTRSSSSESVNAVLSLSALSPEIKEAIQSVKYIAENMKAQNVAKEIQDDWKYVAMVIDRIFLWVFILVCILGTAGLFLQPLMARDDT
T1 sequence (P12392 21-495): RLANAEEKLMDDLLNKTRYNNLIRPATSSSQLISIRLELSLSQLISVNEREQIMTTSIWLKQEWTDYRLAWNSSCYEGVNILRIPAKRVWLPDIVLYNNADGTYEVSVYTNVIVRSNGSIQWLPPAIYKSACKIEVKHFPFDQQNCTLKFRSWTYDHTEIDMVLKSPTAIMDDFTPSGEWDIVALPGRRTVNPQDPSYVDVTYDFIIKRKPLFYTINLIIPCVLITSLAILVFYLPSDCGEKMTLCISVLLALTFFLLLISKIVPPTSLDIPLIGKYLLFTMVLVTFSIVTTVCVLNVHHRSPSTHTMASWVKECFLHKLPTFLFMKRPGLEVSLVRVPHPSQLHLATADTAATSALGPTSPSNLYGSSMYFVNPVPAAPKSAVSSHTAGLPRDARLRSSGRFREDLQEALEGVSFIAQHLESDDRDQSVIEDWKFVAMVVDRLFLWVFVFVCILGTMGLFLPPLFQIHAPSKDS

**Q.** For `COCC[C@H]1CC2CN3CCc4c([nH]c5ccccc45)[C@](C(=O)OC)(C2)[C@H]13` [18-MC, 18-methoxycoronaridine], which Ipeak [1] is on record?
**A.** Its Ipeak is 50 ± 4% of ACh.

**Q.** What about the Iss [1] of the same compound?
**A.** Its Iss is 34 ± 5% of peak.

**Q.** What about the τdecay [1] of the same compound?
**A.** Its τdecay is 298 ± 23 ms.

**Q.** What about the pIC50 ([1]; read-out: IC50, inhibition of ACh-evoked currents) of the same compound?
**A.** The pIC50 was 6.10.

**Q.** What about the “no-observed-adverse-effect level (NOAEL)” value [2] of the same compound?
**A.** Its value is 400 mg/kg.

**Q.** And the “no-observed-effect level (NOEL)” value [2]?
**A.** The value was 90 mg/kg.

**Q.** What about the NOAEL [3] of the same compound?
**A.** The NOAEL was 50 mg/kg/day.

**Q.** And the “bone marrow cytotoxicity and clastogenic activity” value [4]?
**A.** Its value is “negative response”.

**Q.** What about the pIC50 [5] of the same compound?
**A.** The pIC50 was 5.39.
